Columns and labels:
human TDO2 [1] = target: T1, human TDO2 (Homo sapiens, UniProt P48775); assay: Cellular assay for TDO2 activity, A172 cells naturally expressing hTDO2; assay type: cell-based; parameters: expressed in transfected cells; host or cells: murine mastocytoma P815 cells; settings: A172 cells naturally expressing hTDO2, overnight incubation, kynurenine absorbance at 480 nm
Method: (§1) The assay was performed in 96-well flat bottom plates seeded with […] A172 cells, naturally expressing hTDO2 (prepared as described in Tilman et al., Mol Cancer, 2007, 17(6), 80), at a concentration of 1.25×10^4 cells/well in a final volume of 200 μL. To determine TDO, the cells were incubated overnight at 37° C. at 5% CO2 in IMDM (Invitrogen) supplemented with 2% FBS and 2% penicillin/streptomycin in the presence of the compounds of the present invention, at different concentrations.
(§2) The plates were then centrifuged 5 min at 1000 rpm, and 100 μL of the supernatant were collected in a conical plate, 30 uL of TCA 30% were added and a further centrifugated at 3000×g for 10 minutes. 100 μL of the supernatant were collected in a flat bottomed plate and 100 μL of 2% (w/v) 4-(dimethylamino)-benzaldehyde in acetic acid and incubated for 5 min at room temperature. Kynurenine concentrations were determined by measuring the absorbance at 480 nm. A standard curve was made with pure kynurenine. The TDO activity was measured as described above using ten serial concentrations of the compounds of the present invention. Data were fitted using the Prism software (GraphPad Software, Inc.).

human TDO2 [2] = target: T1, human TDO2; assay: Assay for TDO2 enzymatic activity determination; assay type: biochemical; parameters: made in house; settings: human recombinant TDO2, L-Trp 1 mM, room temperature, one hour, kynurenine absorbance at 480 nm
Method: To measure the TDO2 activity, the reaction mixture contained (final concentrations) potassium phosphate buffer (50 mM, pH 7.5), ascorbic acid (0.25 M), methylene blue (0.125 μM), catalase (40 units/mL, from bovine liver, Sigma), and human recombinant TDO2 enzyme (prepared as described in Dolusic et al. J. Med. Chem.; 2011, 54, 5320-5334; 0.9 μg) without or with the compounds of the present invention at the indicated concentrations (total volume 112.5 μL). The reaction was initiated by the addition of 37.5 μL of L-Trp (final concentration 1 mM) at room temperature. The reaction was conducted at room temperature during one hour and stopped by the addition of 30 μL of 30% (w/v) trichloroacetic acid.
To convert N-formylkynurenine into kynurenine, the reaction mixture was incubated at 65° C. for 30 min. Then 150 μL of the reaction mixture was mixed with 120 μL of 2.5% (w/v) 4-(dimethylamino)-benzaldehyde in acetic acid and incubated for 5 min at room temperature. Kynurenine concentrations were determined by measuring the absorbance at 480 nm. A standard curve was made with pure kynurenine. The TDO activity was measured as described above using ten serial concentrations of the compounds of the present invention. Data were fitted using the Prism software (GraphPad Software, Inc.).

human TDO2 [3] = target: T1, human TDO2; assay: Cellular assay for TDO2 activity, hTDO2-overexpressing P815 cells; assay type: cell-based; parameters: expressed in transfected cells; host or cells: murine mastocytoma P815 cells; settings: murine mastocytoma P815 cells overexpressing hTDO2, overnight incubation, kynurenine absorbance at 480 nm
Method: as §1, with “P815 cells overexpressing” for “A172 cells, naturally expressing”, “Pilotte” for “Tilman”, “PNAS, 2012, 109(7), 2497-2502),” for “Mol Cancer, 2007, 17(6), 80),”, “5×10^4” for “1.25×10^4”, “TDO or IDO activity,” for “TDO,”
as §2

TDO2 = target: T2, TDO2 (Mus musculus, UniProt P48776); assay: Pharmacodynamic assay for TDO2 in vivo activity: increase of blood tryptophan levels in mice; settings: for increase of circulating Tryptophan: plasma after two hours, vs vehicle; for Tryptophan concentration in plasma (average ± standard error of the mean): two hours, LC-MS-MS
T2 construct: from tissue; host or cells: live mice (whole animal; plasma tryptophan read-out)
Method: The compounds of the present invention increase the amount of Tryptophan in mouse blood.
Briefly, mice were treated with either a suspension of one of the compounds of the present invention in 0.5% HPMC K4M/0.25% Tween 20 at different doses (30, 60 and 100 mg/kg), or with a vehicle control (0.5% HPMC K4M/0.25% Tween 20), by the oral route by gavage (dosing volume 5 mL/kg, 10 mice per group). After two hours, blood was harvested, plasma was prepared and the amount of Tryptophan present was determined by LC-MS-MS (HPLC column Unison UK-Phenyl, 75×4.6, 3 μm, flow rate 0.8 mL/min, 8 minutes gradient from 95% water+0.1% formic acid/5% Acetonitrile+0.1% formic acid to 5% water+0.1% formic acid/95% Acetonitrile+0.1% formic acid, retention time 2.4 min; API4000 MS-MS system from AB Sciex, ESI+ mode, parent ion 205.1, daughter ion 146.1).

T1 sequence (P48775 whole entry): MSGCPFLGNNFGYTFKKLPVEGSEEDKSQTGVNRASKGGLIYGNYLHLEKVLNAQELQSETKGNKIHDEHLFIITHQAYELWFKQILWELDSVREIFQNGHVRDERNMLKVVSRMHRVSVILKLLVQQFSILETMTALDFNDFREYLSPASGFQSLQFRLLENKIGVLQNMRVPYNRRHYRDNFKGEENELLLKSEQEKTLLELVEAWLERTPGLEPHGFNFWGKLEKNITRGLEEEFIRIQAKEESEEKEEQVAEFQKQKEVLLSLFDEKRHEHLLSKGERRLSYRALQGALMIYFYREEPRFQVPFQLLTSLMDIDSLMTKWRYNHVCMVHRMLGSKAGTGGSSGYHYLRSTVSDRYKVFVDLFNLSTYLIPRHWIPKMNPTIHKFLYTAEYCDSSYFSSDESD
T2 sequence (P48776 whole entry): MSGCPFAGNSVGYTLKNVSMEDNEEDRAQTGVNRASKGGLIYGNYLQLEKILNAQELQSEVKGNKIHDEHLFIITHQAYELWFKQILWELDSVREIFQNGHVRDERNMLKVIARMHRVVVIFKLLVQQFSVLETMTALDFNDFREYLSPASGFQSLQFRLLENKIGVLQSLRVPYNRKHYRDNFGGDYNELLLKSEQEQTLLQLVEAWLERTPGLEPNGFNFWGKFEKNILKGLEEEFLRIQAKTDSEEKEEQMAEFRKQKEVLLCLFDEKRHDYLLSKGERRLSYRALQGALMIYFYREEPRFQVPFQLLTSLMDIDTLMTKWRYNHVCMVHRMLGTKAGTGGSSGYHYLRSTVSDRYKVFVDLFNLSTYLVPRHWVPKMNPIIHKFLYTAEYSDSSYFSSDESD

Row | IC50 (human TDO2 [2]) [nM] | IC50 (human TDO2 [3]) [nM] | Structure (SMILES) | further results
1 |  |  | Fc1ccc2c(-c3cnn(CC4CCNCC4)c3)c[nH]c2c1 [Compound 43, 6-fluoro-3-(1-(piperidin-4-ylmethyl)-1H-pyrazol-4-yl)-1H-indole] | IC50 (human TDO2 [1]): < 1000 nM
2 | 1000 to 10000 | 1000 to 10000 | OC1(Cn2cc(-c3c[nH]c4cc(F)ccc34)cn2)CCOCC1 [Compound 59, 4-((4-(6-fluoro-1H-indol-3-yl)-1H-pyrazol-1-yl)methyl)tetrahydro-2H-pyran-4-ol] | 
3 | 1000 to 10000 | < 1000 | OC1CCC(n2cc(-c3c[nH]c4cc(F)ccc34)cn2)CC1 [Compound 68, (1R,4R)-4-(4-(6-fluoro-1H-indol-3-yl)-1H-pyrazol-1-yl)cyclohexanol] | 
4 | 1000 to 10000 | < 1000 | Cc1nn(C)cc1-c1c[nH]c2cc(F)ccc12 [Compound 75, 3-(1,3-dimethyl-1H-pyrazol-4-yl)-6-fluoro-1H-indole] | 
5 | 10000 to 100000 | 1000 to 10000 | Cn1ncc(-c2c[nH]c3ccccc23)c1C(F)(F)F [Compound 77, 3-(1-methyl-5-(trifluoromethyl)-1H-pyrazol-4-yl)-1H-indole] | 
6 |  |  | COCC(=O)N1CCC(n2cc(-c3c[nH]c4cc(F)ccc34)cn2)CC1 [Compound 85, 1-(4-(4-(6-fluoro-1H-indol-3-yl)-1H-pyrazol-1-yl)piperidin-1-yl)-2-methoxyethanone] | IC50 (human TDO2 [1]): < 1000 nM
7 |  |  | CC(=O)N1CCC(n2cc(-c3c[nH]c4cc(F)ccc34)cn2)CC1 [Compound 89, 1-(4-(4-(6-fluoro-1H-indol-3-yl)-1H-pyrazol-1-yl)piperidin-1-yl)ethanone] | increase of circulating Tryptophan (TDO2; 30 mg/kg oral gavage, p<0.05): 26%; Tryptophan concentration in plasma (average ± standard error of the mean) (TDO2; 30 mg/kg oral gavage): 25126 ng/mL; Tryptophan concentration in plasma (average ± standard error of the mean) (TDO2; 60 mg/kg oral gavage): 28452 ng/mL; increase of circulating Tryptophan (TDO2; 100 mg/kg oral gavage, p<0.001): 43%; Tryptophan concentration in plasma (average ± standard error of the mean) (TDO2; 100 mg/kg oral gavage): 28374 ng/mL; increase of circulating Tryptophan (TDO2; printed 30 mg/kg (second mention, p<0.001), oral gavage): 43%; melting point: 183.2 to 184.5 °C
8 | 10000 to 100000 | 1000 to 10000 | CS(=O)(=O)CCCC(=O)N1CCC(n2cc(-c3c[nH]c4cc(F)ccc34)cn2)CC1 [Compound 103, 1-(4-(4-(6-fluoro-1H-indol-3-yl)-1H-pyrazol-1-yl)piperidin-1-yl)-4-(methylsulfonyl)butan-1-one] | 
9 | 1000 to 10000 | < 1000 | O=C(CCO)N1CCC(n2cc(-c3c[nH]c4cc(F)ccc34)cn2)CC1 [Compound 104, 1-(4-(4-(6-fluoro-1H-indol-3-yl)-1H-pyrazol-1-yl)piperidin-1-yl)-3-hydroxypropan-1-one] | 
10 | 1000 to 10000 | < 1000 | CS(=O)(=O)CCC(=O)N1CCC(n2cc(-c3c[nH]c4cc(F)ccc34)cn2)CC1 [Compound 105, 1-(4-(4-(6-fluoro-1H-indol-3-yl)-1H-pyrazol-1-yl)piperidin-1-yl)-3-(methylsulfonyl)propan-1-one] | 
11 | 1000 to 10000 | < 1000 | CS(=O)(=O)N1CCC(n2cc(-c3c[nH]c4cc(F)ccc34)cn2)CC1 [Compound 106, 6-fluoro-3-(1-(1-(methylsulfonyl)piperidin-4-yl)-1H-pyrazol-4-yl)-1H-indole] | IC50 (human TDO2 [1]): < 1000 nM

Source: patent US20160263087A1, “NOVEL 4-(INDOL-3-YL)-PYRAZOLE DERIVATIVES, PHARMACEUTICAL COMPOSITIONS AND METHODS FOR USE” (ITEOS THERAPEUTICS, priority 2013, published 2016)
